For orientation: IC50 means the concentration at which inhibition is half-maximal.

The record followed here is patent US8076338B2, “Kinase modulators and methods of use” (Exelixis, Inc., priority 2004, dated 2011).

Some results are limits rather than exact numbers.

Assay [1] deals with AktK (Homo sapiens, UniProt P31749). In words: Luciferase-coupled chemiluminescence kinase assay (ATP consumption). The conditions noted are these: Table 1; class symbols per key; read-out: AKT-1 IC50. It counts as biochemical. The procedure, abridged:
(§1)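 Enzyme at 2.5-5 nM was preincubated 30 min at room temperature with compound in Tris pH 7.5, MgCl2, TX-100, DTT, then reacted with ATP for 3 h at ambient temperature. Remaining ATP was quantified by luciferase-luciferin chemiluminescence, with consumption kept at 25-60%; […].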

The target of assay [2] is p70S6K (Homo sapiens, UniProt P23443). Described as above. The assay is classed as biochemical. Particulars: Table 1; class symbols per key. In short, it runs like this: as §1
Chain of p70S6K (P23443 whole entry): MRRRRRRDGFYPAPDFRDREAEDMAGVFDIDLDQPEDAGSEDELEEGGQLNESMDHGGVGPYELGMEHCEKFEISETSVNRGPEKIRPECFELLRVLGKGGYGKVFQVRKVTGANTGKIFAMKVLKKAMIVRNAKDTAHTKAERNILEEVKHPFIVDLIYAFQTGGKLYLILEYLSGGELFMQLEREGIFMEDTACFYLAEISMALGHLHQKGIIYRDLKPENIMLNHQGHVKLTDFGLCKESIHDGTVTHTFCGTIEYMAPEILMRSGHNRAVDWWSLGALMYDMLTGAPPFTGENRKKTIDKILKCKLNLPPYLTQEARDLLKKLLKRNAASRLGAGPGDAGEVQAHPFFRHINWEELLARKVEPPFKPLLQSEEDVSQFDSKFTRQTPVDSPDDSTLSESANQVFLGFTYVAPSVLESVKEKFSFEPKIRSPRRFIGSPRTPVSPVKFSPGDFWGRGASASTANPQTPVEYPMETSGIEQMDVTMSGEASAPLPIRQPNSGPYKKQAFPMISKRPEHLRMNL

Chain of AktK (P31749 whole entry): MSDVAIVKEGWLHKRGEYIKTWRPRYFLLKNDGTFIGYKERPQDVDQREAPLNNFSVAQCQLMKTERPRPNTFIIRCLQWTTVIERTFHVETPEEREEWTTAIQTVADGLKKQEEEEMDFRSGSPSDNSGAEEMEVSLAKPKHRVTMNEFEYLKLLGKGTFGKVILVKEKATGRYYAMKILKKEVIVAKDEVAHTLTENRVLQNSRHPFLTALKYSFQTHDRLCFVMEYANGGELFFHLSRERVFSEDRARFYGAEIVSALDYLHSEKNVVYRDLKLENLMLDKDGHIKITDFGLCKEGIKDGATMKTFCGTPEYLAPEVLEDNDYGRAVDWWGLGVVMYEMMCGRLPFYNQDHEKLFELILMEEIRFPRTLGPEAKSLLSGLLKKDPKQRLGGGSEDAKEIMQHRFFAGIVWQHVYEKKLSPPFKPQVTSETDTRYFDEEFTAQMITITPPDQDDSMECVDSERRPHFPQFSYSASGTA

Turning to `Cc1ccc(C(=O)NCc2ccccc2)cc1N1CCN(c2ncnc3[nH]nc(Br)c23)C[C@@H]1C` [Entry 178, 3-[(2S)-4-(3-bromo-1H-pyrazolo[3,4-d]pyrimidin-4-yl)-2-methylpiperazin-1-yl]-4-methyl-N-(phenylmethyl)benzamide], the half-inhibitory concentration (IC50) in assay [1] was 1000 to 10000 nM; in assay [2], less than 100 nM.

In the case of `COC(=O)c1ccc(C)c(N2CCN(c3ncnc4[nH]nc(Br)c34)CC2)c1` [Entry 179, methyl 3-[4-(3-bromo-1H-pyrazolo[3,4-d]py-rimidin-4-yl)piperazin-1-yl]-4-methylbenzoate], the IC50 in assay [1] and in assay [2] was less than 100 nM in each case.

With `Cc1ccc(C(=O)O)cc1N1CCN(c2ncnc3[nH]nc(Br)c23)CC1` [Entry 180, 3-[4-(3-bromo-1H-pyrazolo[3,4-d]pyrimidin-4-yl)piperazin-1-yl]-4-methylbenzoic acid], the half-maximal inhibitory concentration (IC50) is 100 to 1000 nM in assay [1] and less than 100 nM in assay [2].

Consider `Cc1c(CCCN2CCCC2)cc(Cl)cc1N1CCN(c2ncnc3[nH]nc(/C=C/C(=O)O)c23)CC1` [Entry 181, (2E)-3-(4-{4-[5-chloro-2-methyl-3-(3-pyrrolidin-1-ylpropyl)phenyl]piperazin-1-yl}-1H-pyrazolo[3,4-d]pyrimidin-3-yl)prop-2-enoic acid], for which the concentration for half-maximal inhibition (IC50) in assay [1] and in assay [2] was less than 100 nM throughout.

In the case of `Cc1c(CCCN2CCCC2)cc(Cl)cc1N1CCN(c2ncnc3[nH]nc(C#CCO)c23)CC1` [Entry 182, 3-(4-{4-[5-chloro-2-methyl-3-(3-pyrrolidin-1-ylpropyl)phenyl]piperazin-1-yl}-1H-pyrazolo[3,4-d]pyrimidin-3-yl)prop-2-yn-1-ol], the IC50 in assay [1] and in assay [2] was less than 100 nM throughout.

Consider `Cc1ccc(Cl)cc1N1CCN(c2ncnc3[nH]nc(Br)c23)CC1=O` [Entry 183, 4-(3-bromo-1H-pyrazolo[3,4-d]pyrimidin-4-yl)-1-(5-chloro-2-methylphenyl)piperazin-2-one], for which the half-inhibitory concentration (IC50) in assay [1] is not below 10000 nM; in assay [2], less than 100 nM.

In the case of `Cc1c(NCCN2CCCC2)cc(OCC(C)C)cc1N1CCN(c2ncnc3[nH]nc(Br)c23)CC1` [Entry 184, 3-[4-(3-bromo-1H-pyrazolo[3,4-d]pyrimidin-4-yl)piperazin-1-yl]-2-methyl-5-[(2-methyl-propyl)oxy]-N-(2-pyrrolidin-1-ylethyl)aniline], the IC50 in assay [1] and in assay [2] was less than 100 nM throughout.

In the case of `COC(=O)c1cc(Br)c(C)c(N2CCN(c3ncnc4[nH]nc(Br)c34)CC2)c1` [Entry 186, methyl 3-bromo-5-[4-(3-bromo-1H-pyrazolo[3,4-d]pyrimidin-4-yl)piperazin-1-yl]-4-methylbenzoate], the concentration for half-maximal inhibition (IC50) was 100 to 1000 nM in assay [1] and less than 100 nM in assay [2].

As for `Cc1ccc(C(=O)Nc2ccccc2)cc1N1CCN(c2ncnc3[nH]nc(Br)c23)CC1` [Entry 187, 3-[4-(3-bromo-1H-pyrazolo[3,4-d]pyrimidin-4-yl)piperazin-1-yl]-4-methyl-N-phenylbenzamide], the half-inhibitory concentration (IC50) in assay [1] and in assay [2] was less than 100 nM throughout.

Take `CNC(=O)c1ccc(C)c(N2CCN(c3ncnc4[nH]nc(Br)c34)CC2)c1` [Entry 188, 3-[4-(3-bromo-1H-pyrazolo[3,4-d]pyrimidin-4-yl)piperazin-1-yl]-N,4-dimethylbenzamide]: the 50% inhibitory concentration (IC50) was 100 to 1000 nM in assay [1] and less than 100 nM in assay [2].

For the molecule `CCN(CC)CCOc1cccc(N2CCN(c3ncnc4[nH]nc(Br)c34)CC2)c1` [Entry 189, 2-({3-[4-(3-bromo-1H-pyrazolo[3,4-d]pyrimidin-4-yl)piperazin-1-yl]phenyl}oxy)-N,N-diethylethanamine], the values for the IC50 in assay [1] and in assay [2] were not below 10000 nM and 100 to 1000 nM, respectively.

As to `COC(=O)c1cc(NCCN2CCCC2)c(C)c(N2CCN(c3ncnc4[nH]nc(Br)c34)CC2)c1` [Entry 190, methyl 3-[4-(3-bromo-1H-pyrazolo[3,4-d]pyrimidin-4-yl)piperazin-1-yl]-4-methyl-5-[(2-pyrrolidin-1-ylethyl)amino]benzoate], the IC50 in assay [1] and in assay [2] was less than 100 nM throughout.

For the molecule `Cc1c(Br)cc(C(=O)Nc2ccccc2)cc1N1CCN(c2ncnc3[nH]nc(Br)c23)CC1` [Entry 191, 3-bromo-5-[4-(3-bromo-1H-pyrazolo[3,4-d]pyrimidin-4-yl)piperazin-1-yl]-4-methyl-N-phenylbenzamide], the IC50 in assay [1] is 100 to 1000 nM; in assay [2], less than 100 nM.

`CCc1n[nH]c2ncnc(N3CCN(c4cc(C(=O)Nc5ccccc5)cc(Br)c4C)CC3)c12` [Entry 192, 3-bromo-5-[4-(3-ethyl-1H-pyrazolo[3,4-d]pyrimidin-4-yl)piperazin-1-yl]-4-methyl-N-phenylbenzamide]: the values for the IC50 in assay [1] and in assay [2] were 100 to 1000 nM and less than 100 nM, respectively.

On to `Cc1c(NCCN(C)C(C)C)cc(Cl)cc1N1CCN(c2ncnc3[nH]nc(Br)c23)CC1` [Entry 193, N′-{3-[4-(3-bromo-1H-pyrazolo[3,4-d]pyrimidin-4-yl)piperazin-1-yl]-5-chloro-2-methylphenyl}-N-methyl-N-(1-methylethyl)ethane-1,2-diamine], for which the 50% inhibitory concentration (IC50) in assay [1] and in assay [2] was less than 100 nM throughout.

Regarding `Cc1c(NCCN2CCCC2)cc(C(=O)Nc2ccccc2)cc1N1CCN(c2ncnc3[nH]nc(Br)c23)CC1` [Entry 194, 3-[4-(3-bromo-1H-pyrazolo[3,4-d]pyrimidin-4-yl)piperazin-1-yl]-4-methyl-N-phenyl-5-[(2-pyrrolidin-1-ylethyl)amino]benzamide], the half-maximal inhibitory concentration (IC50) in assay [1] and in assay [2] was less than 100 nM throughout.

For `Cc1c(NCCN(C)C)cc(OCC(C)C)cc1N1CCN(c2ncnc3[nH]nc(Br)c23)CC1` [Entry 195, N′-{3-[4-(3-bromo-1H-pyrazolo[3,4-d]pyrimidin-4-yl)piperazin-1-yl]-2-methyl-5-[(2-methylpropyl)ox-y]phenyl}-N,N-dimethylethane-1,2-diamine], the 50% inhibitory concentration (IC50) in assay [1] and in assay [2] was less than 100 nM each time.

Regarding `Cc1ccc(C(=O)N(C)C)cc1N1CCN(c2ncnc3[nH]nc(Br)c23)CC1` [Entry 196, 3-[4-(3-bromo-1H-pyrazolo[3,4-d]pyrimidin-4-yl)piperazin-1-yl]-N,N,4-trimethylbenzamide], the values for the half-maximal inhibitory concentration (IC50) in assay [1] and in assay [2] were 100 to 1000 nM and less than 100 nM, respectively.

As to `Cc1ccc(C(=O)NCC(C)C)cc1N1CCN(c2ncnc3[nH]nc(Cl)c23)CC1` [Entry 197, 3-[4-(3-chloro-1H-pyrazolo[3,4-d]pyrimidin-4-yl)piperazin-1-yl]-4-methyl-N-(2-methylpropyl)benzamide], the values for the IC50 in assay [1] and in assay [2] were 1000 to 10000 nM and less than 100 nM, respectively.

For the molecule `Cc1c(NCCN2CCCC2)cc(C(=O)N(C)C)cc1N1CCN(c2ncnc3[nH]nc(Br)c23)CC1` [Entry 198, 3-[4-(3-bromo-1H-pyrazolo[3,4-d]pyrimidin-4-yl)piperazin-1-yl]-N,N,4-trimethyl-5-[(2-pyrrolidin-1-ylethyl)amino]benzamide], the IC50 is 100 to 1000 nM in assay [1] and less than 100 nM in assay [2].

Take `Cc1ccc(C(=O)Nc2ccccc2)cc1N1CCN(c2ncnc3[nH]nc(Br)c23)CC1=O` [Entry 199, 3-[4-(3-bromo-1H-pyrazolo[3,4-d]pyrimidin-4-yl)-2-oxopiperazin-1-yl]-4-methyl-N-phenylbenzamide]: the half-inhibitory concentration (IC50) was 1000 to 10000 nM in assay [1] and less than 100 nM in assay [2].
